Measured values from patent US12697337B2, “Solid dispersions” (InventisBio Co., Ltd., priority 2021, dated 2026).

Legend:
[1] = Dynamic moisture sorption analysis (DVS); format: physicochemical
Protocol: Dynamic Moisture Sorption Analysis (DVS)
Small scale up of Form B: Form B was small scaled up for DVS analysis, solubility and stability studies. 103.02 mg of Compound 1 in Form A was dissolved in 5 mL of MeOH (48V) at RT. After filtration, 10 mL of water was added into the filtrate. Precipitation occurred quickly. The suspension was kept stirring at RT for about 2 hours. Solid samples were collected by filtration, dried under vacuum at 50° C. overnight. 94.16 mg solid was obtained with a yield of 91%. This solid was used for the DVS testing.

[2] = Solid state stability of Form B; format: physicochemical; settings: for Purity-7 d (Area %): open, 7 days
Protocol: Solid State Stability of Form B: About 10 mg of Form B was open placed at 40° C./75% RH and 60° C. for 7 days and at 25° C./92.5% RH for 10 days, respectively. Prepare samples in duplicate (n =2) per condition. The solids were analyzed by XRPD and HPLC (only for 40° C./75% RH and 60° C.).

[3] = Dissolution evaluation in FaSSIF medium; format: physicochemical
Protocol: Dissolution evaluation in FaSSIF medium: To evaluate in-vitro release performance of SDDs, dissolution in FaSSIF (pH=6.5±0.05) was performed, and the crystalline Compound 1 (Form B) was also tested as control.
Appropriate amount of Compound 1 or SDD (SDD-0 to SDD-8) was weighed into 40-mL glass vials respectively, and then added 10 mL of FaSSIF medium to a target API concentration of 1 mg/mL, followed by hand shake to suspend well. Place the glass bottle on 37° C. hot-stage by stirring magnetically at 200 rpm. At each time point of 10 min, 20 min, 40 min, 60 min and 120 min, 500 μL suspension was pipetted respectively and centrifuged (14,000 rpm, 3 min) to isolate supernatant and dilute with diluent for UPLC analysis. Finally, the pH value of solution (120 min) were measured by pH meter.
The UPLC method used for the dissolution analysis above is UPLC Method 2, which is shown below: […]

[4] = 1-week stability evaluation of SDD; format: physicochemical; settings: for Appearance / Purity (%) / XRPD: 1 week; for Initial purity (%): before storage
Protocol: A brief description of the methods used for PLM, XRPD, Purity and mDSC analysis of the above SDD samples is shown below. • PLM analysis of the SDD samples were conducted using Nikon LV100POL equipped with 5 megapixel CCD, with the physical lens set at 20×. • For XRPD analysis, samples were spread onto the Si-substrate for XRPD test using the parameters as below: Tube: Cu: K-Alpha (λ=1.5418 Å); Generator: Voltage: 40 kV; Current: 40 mA; Scan Scope: 2 or 3 to 40 deg; Time/step(s) 0.06 s; Total time(s) 120 s or 117.36 s. • For mDSC analysis, SDD powders were weighed into Tzero aluminum sample pan from TA Instruments covered by pinhole lid for mDSC test using the parameters as below: Start temperature at 30° C.; Modulate +/−1° C. every 60 seconds; Ramp 2° C./min to 300° C. • The UPLC method used for the assay and purity analysis above is UPLC Method 1, which is shown below:
Appropriate quantity of SDDs and crystalline Compound 1 (Form B) were placed into 40-mL vials respectively.
The samples (closed) were covered by plastic cap tightly and sealed by parafilm and samples (open) were just covered by aluminum foil with pinholes. Then they were stored at 2-8° C., 25° C./60% RH and 40° C./75% RH stability chamber respectively for 1 week. The samples were analyzed by XRPD to check the physical stability, and meanwhile dissolved with diluent for UPLC analysis (UPLC Method 1) to check the chemical stability.

[5] = PCT/CN2020/137276 and PCT/CN2019/126230; cited from earlier work
[6] = pKa measurement of Compound 1; format: physicochemical; settings: measured pKa; free base
Text: Compound 1 has a measured pKa of around 1 and typically exists in a free base form. Unless otherwise explicitly stated to the contrary, Compound 1 herein should be understood as existing in its free base form as opposed to a salt formed with an acid or base. The synthesis and utility of Compound 1 has been described in Applicant's previous applications, such as International Application Nos. PCT/CN2020/091274, filed May 20, 2020, published as WO2020/233592, PCT/CN2020/137276, filed Dec. 17, 2020, and PCT/CN2019/126230, filed Dec. 18, 2019, the contents of each of which are herein incorporated by reference in their entireties. […] PCT/CN2020/137276 and PCT/CN2019/126230 also describe various isolated forms, substantially pure forms, and/or solid forms of Compound 1 and their preparation methods.

[7] = molecular target: KRAS G12C (Homo sapiens, UniProt P01116, G12C); settings: as described in previous applications; cited from earlier work
Sequence of KRAS G12C (P01116 1-188 isoform P01116-2 G12C): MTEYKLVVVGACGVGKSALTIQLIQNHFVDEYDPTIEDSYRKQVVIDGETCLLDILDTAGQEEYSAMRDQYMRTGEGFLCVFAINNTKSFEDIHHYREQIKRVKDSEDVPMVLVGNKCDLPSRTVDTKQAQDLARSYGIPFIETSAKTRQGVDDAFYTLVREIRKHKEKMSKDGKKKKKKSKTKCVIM

[8] = tested on: various cancers; settings: as described in previous applications; cited from earlier work
[9] = Table 6, FaSSIF (10 mL) pH 6.5, 37° C., target API 1 mg/mL
[10] = Table 11, FaSSIF (10 mL) pH 6.5

C=CC(=O)N1C[C@H](C)N(c2nc(=O)n(-c3c(C4CC4)ncnc3C3CC3)c3nc(-c4c(N)cccc4F)c(F)cc23)C[C@H]1C [Compound 1 (Form B)]
water absorbed (DVS) ([1]; 0-80% RH, 25° C.): ~ 0.84% | crystal form after DVS testing ([1]; XRPD after DVS): without changing of crystal form | XRPD ([2]; 25° C./92.5% RH, after 10 d): Unchanged | chemical stability ([2]; 40° C./75% RH for 7 days): chemically stable | XRPD ([2]; 40° C./75% RH, after 7 d): Unchanged | Purity-7 d (Area %) ([2]; 40° C./75% RH): 98.97 Area % | purity decrease ([2]; 60° C. for 7 days): 0.16% | XRPD ([2]; 60° C., after 7 d): Unchanged | Purity-7 d (Area %) ([2]; 60° C.): 98.82 Area % | physical stability ([2]; at test conditions (40° C./75% RH, 60° C., 25° C./92.5% RH)): physically stable | Initial Purity (Area %) ([2]; before storage): 98.98 Area % | API concentration in dissolution medium, 10 min [3, 9]: 12.5 µg/mL | API concentration in dissolution medium, 20 min [3, 9]: 13.8 µg/mL | API concentration in dissolution medium, 40 min [3, 9]: 15.0 µg/mL | API concentration in dissolution medium, 60 min [3, 9]: 15.5 µg/mL | API concentration in dissolution medium, 120 min [3, 9]: 15.9 µg/mL | pH ([3]; Table 6, pH value of solution at 120 min of FaSSIF dissolution): 6.42 | API concentration in dissolution medium, 10 min [3, 10]: 10.8 µg/mL | API concentration in dissolution medium, 20 min [3, 10]: 12.5 µg/mL | API concentration in dissolution medium, 40 min [3, 10]: 14.3 µg/mL | API concentration in dissolution medium, 60 min [3, 10]: 14.2 µg/mL | API concentration in dissolution medium, 120 min [3, 10]: 14.9 µg/mL | pH ([3]; Table 11, pH of solution after FaSSIF dissolution): 6.41 | API concentration in dissolution medium, 10 min ([3]; Table 15, FaSSIF (10 mL)): 8.1 µg/mL | API concentration in dissolution medium, 20 min ([3]; Table 15, FaSSIF (10 mL)): 8.4 µg/mL | API concentration in dissolution medium, 40 min ([3]; Table 15, FaSSIF (10 mL)): 9.0 µg/mL | API concentration in dissolution medium, 60 min ([3]; Table 15, FaSSIF (10 mL)): 9.1 µg/mL | API concentration in dissolution medium, 120 min ([3]; Table 15, FaSSIF (10 mL)): 9.7 µg/mL | pH ([3]; Table 15, pH of solution after FaSSIF dissolution): 6.48 | Appearance ([4]; Table 8, 2-8° C., closed): Yellow powder | Purity (%) ([4]; Table 8, 2-8° C., closed): 98.81% | XRPD ([4]; Table 8, 2-8° C., closed): Crystal | Appearance ([4]; Table 8, 25° C./60% RH, open): Yellow powder | Purity (%) ([4]; Table 8, 25° C./60% RH, open): 98.86% | XRPD ([4]; Table 8, 25° C./60% RH, open): Crystal | Appearance ([4]; Table 8, 40° C./75% RH, open): Yellow powder | Purity (%) ([4]; Table 8, 40° C./75% RH, open): 98.79% | XRPD ([4]; Table 8, 40° C./75% RH, open): Crystal | Initial purity (%) ([4]; Table 8): 98.75% | Appearance ([4]; Table 12, 2-8° C., closed): Yellow powder | Purity (%) ([4]; Table 12, 2-8° C., closed): 98.81% | XRPD ([4]; Table 12, 2-8° C., closed): Crystal | Appearance ([4]; Table 12, 25° C./60% RH, open): Yellow powder | Purity (%) ([4]; Table 12, 25° C./60% RH, open): 98.86% | XRPD ([4]; Table 12, 25° C./60% RH, open): Crystal | Appearance ([4]; Table 12, 40° C./75% RH, open): Yellow powder | Purity (%) ([4]; Table 12, 40° C./75% RH, open): 98.79% | XRPD ([4]; Table 12, 40° C./75% RH, open): Crystal | Initial purity (%) ([4]; Table 12): 98.75% | relative stability among crystalline Forms A, B, C, D [5]: more stable crystalline form

C=CC(=O)N1C[C@H](C)N(c2nc(=O)n(-c3c(C4CC4)ncnc3C3CC3)c3nc(-c4c(N)cccc4F)c(F)cc23)C[C@H]1C [Compound 1]
pKa [6]: ~1 | KRAS G12C inhibition [7]: potent KRAS G12C inhibitor | efficacy in in vivo mouse models [8]: effective in treating various cancers
